Measured values: ChEMBL document CHEMBL1147442, “Epimerisation of lutein to 3'-epilutein in processed foods” (2004)

Key:
Format in all cases: functional
Rumex acetosa [1] = assay: Ratio in steamed sorrel was determined
Rumex acetosa [2] = assay: Ratio in boiled sorrel was determined
Rubus [3] = assay: Ratio in raw blackberries was determined
Anethum graveolens = assay: Ratio in pickled dill was determined
Rumex acetosa [4] = assay: Ratio in stewed sorrel was determined
Capsicum [5] = assay: Ratio in raw paprika was determined
Rumex acetosa [6] = assay: Ratio in raw sorrel was determined
Prunus domestica [7] = assay: Ratio in bottled plum was determined
Prunus domestica [8] = assay: Ratio in raw plum was determined
Capsicum [9] = assay: Ratio in baked paprika was determined
Rumex acetosa [10] = assay: Ratio in microwaved sorrel was determined
Capsicum [11] = assay: Ratio in pickled paprika was determined
Rubus [12] = assay: Ratio in botteled blackberries was determined

| SMILES | Ratio (Rumex acetosa [1]) | Ratio (Rumex acetosa [2]) | Ratio (Rubus [3]) | Ratio (Anethum graveolens) | Ratio (Rumex acetosa [4]) | Ratio (Capsicum [5]) | Ratio (Rumex acetosa [6]) | Ratio (Prunus domestica [7]) | Ratio (Prunus domestica [8]) | Ratio (Capsicum [9]) | Ratio (Rumex acetosa [10]) | Ratio (Capsicum [11]) | Ratio (Rubus [12]) |
| --- | --- | --- | --- | --- | --- | --- | --- | --- | --- | --- | --- | --- | --- |
| CC1=C[C@H](O)CC(C)(C)[C@H]1/C=C/C(C)=C/C=C/C(C)=C/C=C/C=C(C)/C=C/C=C(C)/C=C/C1=C(C)C[C@@H](O)CC1(C)C [LUTEIN] | 12.7% | 28.6% | 58.6% | 28.7% | 16.4% | 53.5% | 36% | 29.3% | 34.2% | 47.5% | 24% | 49.2% | 37.4% |
| C=C1C=CCC(C)(C)[C@H]1/C=C/C(C)=C/C=C/C(C)=C/C=C/C=C(C)/C=C/C=C(C)/C=C/C1=C(C)C[C@@H](O)CC1(C)C | 11.3% | 6.5% | – | 3% | 8% | – | – | 4.7% | – | 5.1% | 5% | 2.2% | 7.9% |
| CC1=C[C@@H](O)CC(C)(C)[C@H]1/C=C/C(C)=C/C=C/C(C)=C/C=C/C=C(C)/C=C/C=C(C)/C=C/C1=C(C)C[C@@H](O)CC1(C)C | 9.2% | 9% | – | 13.8% | 8.8% | – | – | 7% | – | 3.8% | 6.4% | 12.5% | 17.4% |
